Experimental findings from article PMC6084407, “Structural Basis of Phosphatidic Acid Sensing by APH in Apicomplexan Parasites” (Structure(London, England:1993), 2018) are described below.

Molecules are shown by their SMILES. Bounds are passed on as bounds.

The target in test [1] is T1, PfAPH106-235 (Plasmodium falciparum, UniProt Q8I1U2).
T1 construct: gene PF3D7_0414600; C-terminal PH domain, residues 106-235; codon-optimised gene, pNIC28a-Bsa4, E. coli BL21(DE3); N-terminal His6 tag cut by TEV
Briefly: 1D 1H NMR LUV titration. It counts as binding.

Test [2] concerns the target T2, PfAPH106-235 (Plasmodium falciparum, UniProt Q8I1U2, K138A).
T2 construct: gene PF3D7_0414600
Briefly: biochemical.

In test [3] the target is T3, PfAPH106-235 (Plasmodium falciparum, UniProt Q8I1U2, H145A).
T3 construct: gene PF3D7_0414600
Briefly: biochemical.

Test [4] has as its target T4, PfAPH106-235 (Plasmodium falciparum, UniProt Q8I1U2, F144A/I143A).
T4 construct: gene PF3D7_0414600
The test can be described thus: biochemical.

For test [5], the target named is T5, PfAPH106-235 (Plasmodium falciparum, UniProt Q8I1U2, K140A).
T5 construct: gene PF3D7_0414600
The test can be described thus: biochemical.

For test [6], the target named is T6, PfAPH106-235 (Plasmodium falciparum, UniProt Q8I1U2, K138A/K140A).
T6 construct: gene PF3D7_0414600
The test can be described thus: biochemical.

The target in the next test is T7, TgAPH99-229 (Toxoplasma gondii, UniProt A0A125YY72).
T7 construct: gene TGME49_249970; C-terminal PH domain, residues 99-229; codon-optimised gene, pNIC28a-Bsa4, E. coli BL21(DE3); N-terminal His6 tag cut by TEV
Briefly: 1H-15N HSQC NMR titration. It counts as binding. The following applies: free short-chain lipid; 250 μM protein; buffer pH 7.

For test [7], the target named is T1, PfAPH106-235. The test can be described thus: 1H-15N HSQC NMR titration. It counts as binding. The source says: 1H-15N HSQC NMR titration on PfAPH106-235 | binding to the short-chain PA is in the fast exchange regime on the NMR timescale

T1 sequence (Q8I1U2 entry or part of it): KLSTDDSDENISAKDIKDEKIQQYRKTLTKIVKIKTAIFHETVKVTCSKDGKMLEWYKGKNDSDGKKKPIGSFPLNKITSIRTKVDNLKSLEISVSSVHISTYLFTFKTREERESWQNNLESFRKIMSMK
T6 sequence (Q8I1U2 106-235 K138A/K140A): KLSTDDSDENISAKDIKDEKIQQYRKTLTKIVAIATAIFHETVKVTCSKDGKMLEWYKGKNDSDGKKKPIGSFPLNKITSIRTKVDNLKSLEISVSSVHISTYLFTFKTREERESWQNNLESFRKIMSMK
T7 sequence (A0A125YY72 entry or part of it): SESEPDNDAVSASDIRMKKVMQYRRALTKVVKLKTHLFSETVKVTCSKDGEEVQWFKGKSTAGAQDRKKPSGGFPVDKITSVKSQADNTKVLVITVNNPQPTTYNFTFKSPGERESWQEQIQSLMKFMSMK
T4 sequence (Q8I1U2 106-235 F144A/I143A): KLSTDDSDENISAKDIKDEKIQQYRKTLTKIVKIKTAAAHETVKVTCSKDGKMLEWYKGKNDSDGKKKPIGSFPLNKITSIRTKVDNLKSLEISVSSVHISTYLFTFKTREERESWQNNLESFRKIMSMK
T3 sequence (Q8I1U2 106-235 H145A): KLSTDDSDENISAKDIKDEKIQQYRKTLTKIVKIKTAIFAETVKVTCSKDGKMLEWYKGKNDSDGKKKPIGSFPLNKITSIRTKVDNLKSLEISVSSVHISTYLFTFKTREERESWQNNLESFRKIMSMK
T5 sequence (Q8I1U2 106-235 K140A): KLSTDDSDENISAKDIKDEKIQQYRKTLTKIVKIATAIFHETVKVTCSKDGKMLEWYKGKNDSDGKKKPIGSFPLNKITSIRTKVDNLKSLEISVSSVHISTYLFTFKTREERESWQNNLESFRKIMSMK
T2 sequence (Q8I1U2 106-235 K138A): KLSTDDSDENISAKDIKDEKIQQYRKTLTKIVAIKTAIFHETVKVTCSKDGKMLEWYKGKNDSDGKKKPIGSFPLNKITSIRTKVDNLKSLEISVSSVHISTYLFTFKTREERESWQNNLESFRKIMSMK

Take `CCCCCCCC/C=C\CCCCCCCC(=O)O[C@H](COC(=O)CCCCCCCCCCCCCCC)COP(=O)(O)O` [POPA, 1-palmitoyl-2-oleoyl-sn-glycero-3-phosphate]: the dissociation constant Kd at PfAPH106-235 [1] came to 275 ± 13 µM; on PfAPH106-235 [2], 959 ± 35 µM; on PfAPH106-235 [3], 499 ± 9 µM; at PfAPH106-235 [4], 1320 µM; on PfAPH106-235 [5] it was 604 ± 29 µM; on PfAPH106-235 [6], 1490 µM.
With `CCCCCCCC/C=C\CCCCCCCC(=O)O[C@H](COC(=O)CCCCCCCCCCCCCCC)COP(=O)([O-])OCC[N+](C)(C)C` [POPC, 1-palmitoyl-2-oleoyl-sn-glycero-3-phosphocholine], the affinity at PfAPH106-235 [1], expressed as Kd, was 1070 ± 33 µM.
On the same count and under the same terms, in the case of `CCCCCCCC/C=C\CCCCCCCC(=O)O[C@H](COC(=O)CCCCCCCCCCCCCCC)COP(=O)(O)OC[C@H](N)C(=O)O` [POPS, 1-palmitoyl-2-oleoyl-sn-glycero-3-phospho-L-serine] it was 850 ± 13 µM.
Regarding `CCCCCC(=O)OC[C@H](COP(=O)(O)O)OC(=O)CCCCC` [short-chain PA, 1,2-dihexanoyl-sn-glycero-3-phosphate], on TgAPH99-229, the “1H-15N HSQC NMR titration” value is “Binding experiments with recombinant APHs and short-chain PA enabled mapping”. This molecule also showed a Kd at PfAPH106-235 [7] greater than 50 µM.

For orientation: Kd means a measure of binding affinity in units of concentration. Read a low Kd as a tighter complex.
